Results on five compounds are retold here after ChEMBL document CHEMBL1759968, “Synthesis and biological evaluation of unsaturated keto and exomethylene D-arabinopyranonucleoside analogs: novel 5-fluorouracil analogs that target thymidylate synthase” (Eur J Med Chem, 2011).

Active and inactive are the calls of the source. No cut-off for these calls is given here.

Series [1] is described as follows: Stability of compound in phosphate buffered saline up to 3 days. The series is classed as physicochemical. The settings on record: buffer, 72 h.
The nature of series [2]: Stability of compound in phosphate buffer at pH 6.2 after 60 mins. The series is classed as physicochemical. To be noted: pH 6.2, 1 h.
Series [3] deals with T1, Thymidylate synthase (Mus musculus, UniProt P07607). Put plainly: Inhibition of thymidylate synthase in mouse L1210 cells assessed as inhibition of tritium release from [5-3H]deoxyuridine after preincubation for 15 mins by liquid scintillation counting. The series is classed as cell-based.
T1 sequence (P07607 whole entry): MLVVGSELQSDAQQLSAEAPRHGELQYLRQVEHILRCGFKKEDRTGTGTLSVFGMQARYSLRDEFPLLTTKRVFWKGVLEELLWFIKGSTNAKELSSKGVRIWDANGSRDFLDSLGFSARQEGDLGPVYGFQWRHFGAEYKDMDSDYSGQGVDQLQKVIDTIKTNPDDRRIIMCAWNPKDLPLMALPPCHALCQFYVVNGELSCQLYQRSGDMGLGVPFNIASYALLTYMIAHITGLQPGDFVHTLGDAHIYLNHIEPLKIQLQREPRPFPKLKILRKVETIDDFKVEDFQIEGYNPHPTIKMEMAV
The target in series [4] is T1, Thymidylate synthase. Put plainly: Inhibition of thymidylate synthase in mouse L1210 cells assessed as inhibition of tritium release from [5-3H]deoxyuridine after preincubation for 4 hrs by liquid scintillation counting. The series is classed as cell-based.
The target in series [5] is T1, Thymidylate synthase. Put plainly: Inhibition of thymidylate synthase in mouse L1210 cells assessed as inhibition of tritium release from [5-3H]deoxyuridine after preincubation for 24 hrs by liquid scintillation counting. The series is classed as cell-based.
Series [6] addresses T1, Thymidylate synthase. Put plainly: Inhibition of thymidylate synthase in mouse L1210 cells assessed as inhibition of tritium release from [5-3H]deoxycytidine after preincubation for 15 mins by liquid scintillation counting. The series is classed as cell-based.
For series [7], the target named is T1, Thymidylate synthase. Put plainly: Inhibition of thymidylate synthase in mouse L1210 cells assessed as inhibition of tritium release from [5-3H]deoxycytidine after preincubation for 4 hrs by liquid scintillation counting. Type of series: cell-based.
In series [8] the target is T1, Thymidylate synthase. Put plainly: Inhibition of thymidylate synthase in mouse L1210 cells assessed as inhibition of tritium release from [5-3H]deoxycytidine after preincubation for 24 hrs by liquid scintillation counting. The series is classed as cell-based.
Series [9] deals with Mammalian orthoreovirus 1. Put plainly: Antiviral activity against Reovirus 1 infected in Vero cells assessed as inhibition of virus-induced cytopathic effect. Type of series: functional, organism-based. On the technique in general: Damage to the host cells serves as the signal in cytopathic effect assays.
For series [10], the system named is Human respirovirus 3. Put plainly: Antiviral activity against Human parainfluenza virus 3 infected in Vero cells assessed as inhibition of virus-induced cytopathic effect. Type of series: functional, organism-based.
Series [11] deals with Vesicular stomatitis virus. Put plainly: Antiviral activity against Vesicular stomatitis virus infected in HEL cells assessed as inhibition of virus-induced cytopathic effect. The series is classed as functional, organism-based.
Series [12] relates to Vaccinia virus. Put plainly: Antiviral activity against Vaccinia virus infected in HEL cells assessed as inhibition of virus-induced cytopathic effect. The series is classed as functional, organism-based. To be noted: Orthopoxvirus vaccinia.
The subject of series [13] is Human alphaherpesvirus 2. Put plainly: Antiviral activity against Herpes simplex virus type-2 infected in HEL cells assessed as inhibition of virus-induced cytopathic effect. The series is classed as functional, organism-based.
Series [14] deals with Human alphaherpesvirus 1. Put plainly: Antiviral activity against Herpes simplex virus type-1 infected in HEL cells assessed as inhibition of virus-induced cytopathic effect. Type of series: functional, organism-based.
Series [15] relates to FM3A. Put plainly: Cytostatic activity against mouse FM3A cells after 2 days by coulter counting analysis. Type of series: functional, cell-based. The settings on record: 48 h.
For series [16], the system named is HeLa. Put plainly: Cytostatic activity against human HeLa cells after 3 days by coulter counting analysis. Type of series: functional, cell-based. The settings on record: 72 h.
Series [17] has as its system L1210. Put plainly: Cytostatic activity against mouse L1210 cells in presence of 20 uM thymidine. Type of series: functional, cell-based.
In series [18] the test system is L1210. Put plainly: Cytostatic activity against mouse L1210 cells in presence of 20 uM 2'-deoxyuridine. The series is classed as functional, cell-based.
For series [19], the system named is L1210. Put plainly: Cytostatic activity against mouse L1210 cells in presence of 500 uM uridine. Type of series: functional, cell-based.
The subject of series [20] is L1210. Put plainly: Cytostatic activity against mouse L1210 cells in presence of 500 uM uracil. Type of series: functional, cell-based.
The test system of series [21] is HeLa. Put plainly: Cytostatic activity against human HeLa cells in presence of 20 uM thymidine. The series is classed as functional, cell-based.
The subject of series [22] is HeLa. Put plainly: Cytostatic activity against human HeLa cells in presence of 20 uM 2'-deoxyuridine. The series is classed as functional, cell-based.
In series [23] the test system is HeLa. Put plainly: Cytostatic activity against human HeLa cells in presence of 500 uM uridine. The series is classed as functional, cell-based.
For series [24], the system named is HeLa. Put plainly: Cytostatic activity against human HeLa cells in presence of 500 uM uracil. Type of series: functional, cell-based.
The subject of series [25] is L1210. Put plainly: Inhibition of DNA synthesis in mouse L1210 cells assessed as [methyl-3H]thymidine incorporation in to DNA by liquid scintillation counting. Type of series: functional, cell-based. In general terms: Dividing cells build labelled thymidine or BrdU into new DNA.
For series [26], the system named is L1210. Put plainly: Inhibition of DNA synthesis in mouse L1210 cells assessed as [6-3H]2'-deoxyuridine incorporation in to DNA by liquid scintillation counting. The series is classed as functional, cell-based.
Series [27] concerns L1210. Put plainly: Inhibition of RNA synthesis in mouse L1210 cells assessed as [5-3H]uridine incorporation in to RNA by liquid scintillation counting. Type of series: functional, cell-based.
The test system of series [28] is L1210. Put plainly: Inhibition of DNA synthesis in mouse L1210 cells assessed as [methyl-3H]thymidine incorporation in to DNA preincubated for 24 hrs by liquid scintillation counting. The series is classed as functional, cell-based.
The subject of series [29] is L1210. Put plainly: Inhibition of DNA synthesis in mouse L1210 cells assessed as [6-3H]2'-deoxyuridine incorporation in to DNA preincubated for 24 hrs by liquid scintillation counting. Type of series: functional, cell-based.
Series [30] relates to L1210. Put plainly: Inhibition of RNA synthesis in mouse L1210 cells assessed as [5-3H]uridine incorporation in to RNA preincubated for 24 hrs by liquid scintillation counting. Type of series: functional, cell-based.
The test system of series [31] is Punta Toro virus. Put plainly: Antiviral activity against Punta Toro virus infected in Vero cells assessed as inhibition of virus-induced cytopathic effect. Type of series: functional, organism-based.
Series [32] has as its system Vesicular stomatitis virus. Put plainly: Antiviral activity against Vesicular stomatitis virus infected in HeLa cells assessed as inhibition of virus-induced cytopathic effect. Type of series: functional, organism-based.
In series [33] the test system is Respiratory syncytial virus. Put plainly: Antiviral activity against Respiratory syncytial virus infected in HeLa cells assessed as inhibition of virus-induced cytopathic effect. The series is classed as functional, organism-based.
The subject of series [34] is Sindbis virus. Put plainly: Antiviral activity against Sindbis virus infected in Vero cells assessed as inhibition of virus-induced cytopathic effect. The series is classed as functional, organism-based.
Series [35] relates to Coxsackievirus B4. Put plainly: Antiviral activity against Human coxsackievirus B4 infected in Vero cells assessed as inhibition of virus-induced cytopathic effect. The series is classed as functional, organism-based.
Series [36] concerns Coxsackievirus B4. Put plainly: Antiviral activity against Human coxsackievirus B4 infected in HeLa cells assessed as inhibition of virus-induced cytopathic effect. The series is classed as functional, organism-based.
Series [37] deals with HeLa. Put plainly: Ratio of compound IC50 to 5-flurouracil IC50 for human HeLa cells. Type of series: functional.
In series [38] the test system is CCRF-CEM. Put plainly: Ratio of compound IC50 to 5-flurouracil IC50 for human CEM cells. The series is classed as functional.
Series [39] concerns FM3A. Put plainly: Ratio of compound IC50 to 5-flurouracil IC50 for mouse FM3A cells. Type of series: functional.
Series [40] concerns L1210. Put plainly: Ratio of compound IC50 to 5-flurouracil IC50 for mouse L1210 cells. Type of series: functional.
For series [41], the system named is L1210. Put plainly: Cytostatic activity against mouse L1210 cells after 2 days by coulter counting analysis. The series is classed as functional, cell-based. The settings on record: L1210, 48 h.
Series [42] relates to CCRF-CEM. Put plainly: Cytostatic activity against human CEM cells after 3 days by coulter counting analysis. The settings on record: 72 h. The series is classed as functional, cell-based.

In general, IC50 refers to the concentration that gives 50% inhibition. Regarding `C=C1C=CCO[C@@H]1n1cc(F)c(=O)[nH]c1=O`, the Stability entry in series [1] and in series [2] was “Stable” throughout. Besides, the IC50 is > 10000 nM in series [3]; 8700 nM in [4]; 430 nM in [5]; > 10000 nM in series [6]; 9300 nM in series [7]; 2200 nM in series [8].

Take `O=C1C=CCO[C@@H]1n1cc(F)c(=O)[nH]c1=O`: in [1], the Stability entry was “Unstable”. Further, the IC50 in series [3] is 8100 nM; in series [4], 830 nM; in series [5] it was 63 nM; in series [6] it was > 10000 nM; in series [7] it was 950 nM; in [8], 71 nM.

For the compound `O=c1[nH]cc(F)c(=O)[nH]1` [FLUOROURACIL], the result in series [9], in [10], in series [11], in [12], in series [13] and in series [14] was inactive. The outcome in series [31], in series [32], in [33], in series [34], in [35] and in series [36] was inactive. For the same compound, the IC50 was 180 nM in series [15]; 450 nM in series [16]; 21000 nM in series [17]; 1300 nM in series [18]; 620 nM in series [19]; 470 nM in series [20]. Besides, the IC50 in series [21] was 1500 nM; in series [22] it was 180 nM; in series [23], 1100 nM; in [24] it was 1000 nM; in [25], > 500000 nM; in [26], 970 nM. For the same compound, the IC50 in series [27] was 51000 nM; in series [28], > 500000 nM; in [29], 370 nM; in [30], 4900 nM; in series [3], 7000 nM; in series [4] it was 220 nM. Besides, the IC50 in [5] was 20 nM; in series [6], ≥ 10000 nM; in series [7], 600 nM; in [8] it was 60 nM.

Turning to `C=C1[C@H](O)[C@H](O)CO[C@@H]1n1cc(F)c(=O)[nH]c1=O`, the Stability entry in [1] and in series [2] was “Stable” in each case. For the same compound, the IC50 was ≥ 10000 nM in series [3]; 3600 nM in [4]; 570 nM in [5]; 8200 nM in series [6]; 5500 nM in series [7]; 5400 nM in series [8].

With `O=C1C=CCO[C@@H]1n1cc(F)c(O)nc1=O`, the result in series [9], in series [10], in series [11], in series [12], in series [13] and in series [14] was inactive. Besides, the outcome in [31], in [32], in series [33], in series [34], in [35] and in series [36] was inactive. The Ratio in series [37], in [38], in series [39] and in [40] was 1.5 each time. Besides, the IC50 in series [41] turned out to be 1300 nM; in [15], 230 nM; in [42] it was 17000 nM; in [16], 970 nM; in series [17], 75000 nM; in series [18], 3500 nM. For the same compound, the IC50 was found to be 2000 nM in [19]; 1000 nM in series [20]; 7100 nM in series [21]; 620 nM in series [22]; 5300 nM in [23]; 8000 nM in series [24]. The IC50 in series [25] is 349000 nM; in [26], 3100 nM; in series [27], 63000 nM; in [28], 294000 nM; in series [29], 2500 nM; in [30], 16000 nM.
